Measured values published in patent US8592446B2, “[1,10]-phenanthroline derivatives for the treatment of neurodegenerative or haematological diseases” (Noscira, S.A., priority 2007, dated 2013).
Read-outs that look alike come from different tables or passages of the source.

Columns and labels:
Assay type in all cases: cell-based
[1] = system: SH-SY5Y human neuroblastoma cells; assay: Toxicity: LDH activity release in SH-SY5Y cells; settings: 24 h; for Maximum concentration tested for toxicity: increasing concentrations from 1 μM up to 1 mM
Protocol: The potential effects on cell viability of the assayed compounds are assayed in SH-SY5Y human neuroblastoma cells, by quantification of Lactate dehydrogenase (LDH) activity release. SH-SY5Y human neuroblastoma cells are seeded into 96-well culture plates at 10^4 cells/well. The medium is then removed and the cells incubated with different concentrations of the compounds during 24 h. The compounds are tested at increasing concentrations starting from 1 μM, in fresh culture medium, in order to find the minimum concentration at which the compounds are toxic, up to a maximum of 1 mM. After 24 h, the medium is removed and cells attached to the bottom of the well are lysed by adding 50 μl of Krebs-Hepes; Triton X-100 1% during 5 minutes at room temperature. For LDH release quantification, the Roche cytotoxicity detection kit (Cat.
No. 11 644 793 001) is used. The LDH activity is measured by its absorbance at 492 nm with reference wavelength 620 nm.
In Table 1, for each compound the maximum concentration at which toxicity was tested is indicated in the second column. In the third column, it is indicated whether at this maximum concentration the compound was toxic or not. All the compounds, with the exception of Compound 3, resulted non-toxic at the concentration for which activity was found, in most of the cases even at a 1000-fold concentration. Thus, the compounds may be considered non-toxic.

[2] = system: SH-SY5Y human neuroblastoma cells; assay: Protection against hydrogen peroxide-induced cell death (LDH); settings: compound 1 h before H2O2 100 μM, 24 h; for minimal effective concentration: Homo sapiens, SH-SY5Y, read-out: Protect. H2O2 (minimum concentration for which protection was determined)
Protocol: The aim of this assay is to determine the neuroprotective effect of the compounds of formula (I), when human neuroblastoma cells are exposed to oxidative stress induced by hydrogen peroxide, which is highly deleterious to the cell and its accumulation causes oxidation of cellular targets such as DNA, proteins, and lipids leading to mutagenesis and cell death.
SH-SY5Y human neuroblastoma cells are seeded into 96-well culture plate at a density of 10^4 cells/well. Cells are exposed to different concentrations of the compound one hour before the treatment with H2O2 100 μM during 24 h. 5 mM N-acetylcysteine (NAC), a known anti-oxidant agent was used as a positive control, and preincubated 1 hour before the treatment with H2O2. After 24 h, the medium is removed and cells attached to the bottom of the well are lysed by adding 50 μl of Triton X-100 1% in Krebs-Hepes during 5 minutes at room temperature. For LDH release quantification, Roche cytotoxicity detection kit (Cat. No. 11 644 793 001) was used.

[3] = system: SH-SY5Y human neuroblastoma cells; assay: Protection against 6-OHDA-induced cell death, condition A (10% foetal bovine serum); settings: preincubated 2 hours, 6-OHDA 75 μM 16 hours, read-out: Protect. 6-OHDA (+ FBS) (minimum concentration with neuroprotective effect)
Excerpt: (§1) The aim of this experiment is to determine the protective effect of the compounds of formula (1) against the toxicity caused by 6-OHDA. This toxin induces a cell death similar to which occurs in Parkinson's disease, destroying dopaminergic neurons (“MPTP and 6-hydroxydopamine-induced neurodegeneration as models for Parkinson's disease: neuroprotective strategies”; Grunblatt E, et al.; J Neurol. 2000 Apr; 247 Suppl 2:II95-102).
(§2) Two or three days before the experiment, the SH-SY5Y human neuroblastoma cells are seeded into 96-well culture plate at a density of 10^4 cells/well. Cells are exposed to the treatment with 6-OHDA and, finally, cell death is measured by LDH quantification. As positive control we used NAC.
• A) NAC and the compound of formula (I) are preincubated during 2 hours before the treatment with 6-OHDA 75 μM during 16 hours. The assay is performed in medium containing 10% Foetal bovine serum.
(§3) For each compound the minimum concentration of compound of formula (I) at which a neuroprotective effect is shown.

[4] = system: SH-SY5Y human neuroblastoma cells; assay: Protection against 6-OHDA-induced cell death, condition B (no fetal bovine serum); settings: preincubated 1 hour, 6-OHDA 50 μM 24 hours, read-out: Protect. 6-OHDA (−FBS) (minimum concentration with neuroprotective effect)
Excerpt: as §1, §2
• B) NAC and the compound of formula (I) are preincubated during 1 hour before the treatment with 6-OHDA 50 μM during 24 hours. The assay is performed in a medium without any fetal bovine serum.
as §3

SH-SY5Y cells = assay: Neuroprotection against Aβ25-35 toxicity (LDH assay); settings: Homo sapiens, pre-treated 1 hour, 200 μM Aβ25-35 24 hours, read-out: Protect. beta-Amyloid25-35 (minimum concentration showing neuroprotection)
Protocol: In order to evaluate potential neuroprotection of compounds, SH-SY5Y cells, cultured in 96-well plates, were pre-treated for 1 hour with the compound at different concentrations and then exposed 24 hours to 200 μM Aβ25-35 (Neosystem) to induce extensive oxidative stress and cell death. The ability of the compound of protecting against this toxicity is then evaluated by measuring intracellular LDH, using the colorimetric LDH assay.
It is widely accepted that the neurotoxic activity of Aβ resides within amino acids 25-35 (see e.g. Yankner B A et al., (1990) Neurotrophic and neurotoxic effects of amyloid β protein: reversal by tachykinin neuropeptides; Science 250:279-282).

[5] = system: Aβ (1-40) secretion by CHO7W cells (stably transfected with human APP751 wt cDNA); assay: Inhibition of Aβ(1-40) secretion (ELISA, cellular supernatants); settings: Aβ 1-40 ELISA; for minimal effective concentration: read-out: Inhibition secretion beta-amyloid (minimum concentration)
Excerpt: To quantitate Aβ secretion ELISA-based method was used. The assay consists in detection of antigen by selective monoclonal anti-Aβ-antibodies at two different epitopes forming a “Sandwich-complex”, that is detected by colorimetric measure due to the binding of a secondary antibody conjugated with peroxidase that catalyses the conversion of a substrate or chromogen, TMB, into a coloured product, directly proportional to the peptide quantity in the sample. The Aβ production has been analyzed by ELISA, using a colorimetric commercial kit: Immunoassay Kit Human β Amyloid 1-40 (Biosource).
Aβ (1-40) were quantified from cellular supernatants. An APP-transfected cell line has been employed for the experiments: CHO7W (stably transfected with human APP751 wt cDNA). The cells were grown in a culture medium consisting of DMEM supplemented with 2% Fetal bovine serum, 1% penicillin-streptomycin, 1% L-glutamine and 200 μg/ml G418. Cells are seeded in 96-well culture microplate, at 5000 cells/well and treatment with different compounds at different concentrations is performed 24 hour after seeding.
OM99-2 (H-5108, Bachem), a BACE inhibitor, was used as Aβ secretion reduction positive control in all the Aβ secretion studies. The cells were treated with this compound at 3 μM concentration, culture media were collected at 24 hours.

Row | SMILES | Maximum concentration tested for toxicity [1] | Toxic at maximum concentration tested (Yes/No) ([1]; at 10 μM) | minimal effective concentration [2] | minimal effective concentration [3] | minimal effective concentration [4] | minimal effective concentration (SH-SY5Y cells) | minimal effective concentration ([5]; Homo sapiens, CHO-7W) | Toxic at maximum concentration tested (Yes/No) ([1]; at 1 mM) | Inhibition secretion beta-amyloid (minimum concentration) [5] | Protect. H2O2 (minimum concentration for which protection was determined) [2] | minimal effective concentration [5] | Toxic at maximum concentration tested (Yes/No) ([1]; at 1000 μM) | Toxic at maximum concentration tested (Yes/No) ([1]; at 100 μM) | Toxicity at the concentration for which activity was found [1]
1 | Cc1nnc(Sc2cc(C=NO)nc3c2ccc2cccnc23)s1 [Compound 18, 4-(5-Methyl-[1,3,4]thiadiazol-2-ylsulfanyl)-[1,10]phenanthroline-2-carbaldehyde oxime] | 10 µM | Yes | 0.05 µM | 0.05 µM | 10 µM | 10 µM | 0.1 µM |  |  |  |  |  |  | 
2 | ON=Cc1cc(Cl)c2ccc3cccnc3c2n1 [Compound 2, 4-Chloro-[1,10]phenanthroline-2-carbaldehyde oxime] | 1000 µM |  | 0.05 µM | 0.5 µM | 0.5 µM | 10 µM |  | Yes | 1 mM |  |  |  |  | 
3 | NCCOc1cc(/C=N/O)nc2c1ccc1cccnc12 [Compound 9, 4-(2-Amino-ethoxy)-[1,10]phenanthroline-2-carbaldehyde oxime] | 10 µM | No | 5 µM | 5 µM | 5 µM | 5 µM |  |  | 10 mM |  |  |  |  | 
4 | CCOc1cc(/C=N/O)nc2c1ccc1cccnc12 [Compound 6, 4-Ethoxy-[1,10]phenanthroline-2-carbaldehyde oxime] | 1000 µM |  |  | 0.05 µM | 0.5 µM | 10 µM |  | Yes |  | 5 nM | 0.01 µM |  |  | 
5 | ON=Cc1cc(Sc2nncs2)c2ccc3cccnc3c2n1 [Compound 19, 4-([1,3,4]Thiadiazol-2-ylsulfanyl)-[1,10]phenanthroline-2-carbaldehyde oxime] | 10 µM | Yes | 0.5 µM |  |  |  | 1 µM |  |  |  |  |  |  | 
6 | COc1cc(C=NO)nc2c1ccc1cccnc12 [Compound 1, 4-Methoxy-[1,10]phenanthroline-2-carbaldehyde oxime] | 1000 µM |  | 0.05 µM | 0.5 µM | 0.5 µM | 5 µM |  | Yes | 0.01 mM |  |  |  |  | 
7 | CN(C)C(=O)CSc1cc(C=NO)nc2c1ccc1cccnc12 [Compound 12, 2-[2-(Hydroxyimino-methyl)-[1,10]phenanthrolin-4-ylsulfanyl]-N,N-dimethyl-acetamide] | 1000 µM |  | 0.1 µM | 0.1 µM | 0.5 µM | 10 µM | 1 µM |  |  |  |  | No |  | 
8 | O=C(O)CSc1cc(C=NO)nc2c1ccc1cccnc12 [Compound 16, [2-(Hydroxyimino-methyl)-[1,10]phenanthrolin-4-ylsulfanyl]-acetic acid] | 10 µM | Yes | 0.05 µM | 0.5 µM | 10 µM | 5 µM | 1 µM |  |  |  |  |  |  | 
9 | Cc1cnc(Sc2cc(C=NO)nc3c2ccc2cccnc23)s1 [Compound 17, 4-(5-Methyl-thiazol-2-ylsulfanyl)-[1,10]phenanthroline-2-carbaldehyde oxime] | 1000 µM |  | 5 µM |  |  |  | 10 µM |  |  |  |  | Yes |  | 
10 | ON=Cc1cc(Sc2nccs2)c2ccc3cccnc3c2n1 [Compound 15, 4-(Thiazol-2-ylsulfanyl)-[1,10]phenanthroline-2-carbaldehyde oxime] | 100 µM |  | 0.5 µM |  |  |  | 10 µM |  |  |  |  |  | Yes | 
11 | CSc1cc(C=O)nc2c1ccc1cccnc12 [Compound 20, 4-Methylsulfanyl-[1,10]phenanthroline-2-carbaldehyde] | 10 µM | Yes | 0.5 µM |  |  |  | 10 µM |  |  |  |  |  |  | 
12 | CCCSc1cc(/C=N/O)nc2c1ccc1cccnc12 [Compound 5, 4-Propylsulfanyl-[1,10]phenanthroline-2-carbaldehyde oxime] | 1000 µM |  |  | 0.05 µM | 0.5 µM |  |  | Yes |  | 5 nM | 0.001 µM |  |  | 
13 | O=Cc1cc(Cl)c2ccc3cccnc3c2n1 [Compound 3, 4-Chloro-[1,10]phenanthroline-2-carbaldehyde] | 10 µM | Yes | 10 µM |  | 10 µM |  |  |  |  |  |  |  |  | exception
